Laboratory results taken from patent publication US11279712B2, “Macrocyclic compounds that inhibit MCL-1 protein” (AMGEN INC., priority 2017, dated 2022).
Read-outs that look alike come from different tables or passages of the source.

Assays:
[1] = system: OPM-2 human multiple myeloma cell line; experiment: Cell Viability Assay (OPM-2 10 FBS); format: cell-based; settings: OPM-2 cells, CellTiter-Glo, read-out: OPM-2 10% FBS IC50 IP
Procedure: Cell Viability Assay (OPM-2 10 FBS)
The human multiple myeloma cell line, OPM-2, was cultured in complete growth medium containing RPMI 1640 and 10% fetal bovine serum (FBS). Cells were seeded into 384-well plates at 3000 cells/well density in complete growth medium containing 10% FBS, and incubated for 16 h with serially diluted test compounds in a 37° C. incubator with 5% CO2. Cell viability was tested using CellTiter-Glo® assay (Promega, Madison, Wis.) according to the manufacturer recommendations. Luminescence was determined using an EnVision® Multilabel plate reader 25 min after the addition of detection reagent. IC50 values were then calculated with Xlfit using a logistical 4-parameter fit model in GraphPad Prism (GraphPad Software, San Diego, Calif.) or in Genedata Screener® (Genedata, Basel, Switzerland).

[2] = biological target: Mcl-1/Bim interaction (recombinant human Mcl-1 residues 171-327) (Homo sapiens (Human), UniProt Q07820); experiment: Cell Free Mcl-1:Bim Affinity Assay (Mcl-1 HTRF); format: binding; settings: TR-FRET, 0.1 nM Mcl-1(171-327), 0.05 nM biotin-Bim(51-76)
Chain of Mcl-1/Bim interaction (recombinant human Mcl-1 residues 171-327) (Q07820 171-327): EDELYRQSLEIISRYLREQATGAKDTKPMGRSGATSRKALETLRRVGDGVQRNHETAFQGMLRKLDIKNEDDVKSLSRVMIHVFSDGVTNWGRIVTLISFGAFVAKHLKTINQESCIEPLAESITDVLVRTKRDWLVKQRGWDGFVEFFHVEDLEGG
Procedure: Cell Free Mcl-1:Bim Affinity Assay (Mcl-1 HTRF)
The inhibition of the Mcl-1/Bim interaction was measured using a time-resolved fluorescence resonance energy transfer (TR-FRET) assay. The recombinant human Mcl-1 (C-terminally 6×His tagged Mcl-1 containing residues 171-327) was generated at Amgen Inc (Thousand Oaks, Calif.). A biotinylated peptide derived from human Bim (residues 51-76) was purchased from CPC Scientific (San Jose, Calif.). The TR-FRET assay was conducted in a 384-well white OptiPlate™ (PerkinElmer, Waltham, Mass.) in a total volume of 40 μL. The reaction mixture contained 0.1 nM Mcl-1(171-327), 0.05 nM biotin-Bim(51-76), 0.05 nM LANCES Eu-W1024 Anti-6×His (PerkinElmer), 0.072 nM Streptavidin-Xlent (Cisbio, Bedford, Mass.), and serially diluted test compounds in the binding buffer of 20 mM Hepes, pH 7.5, 150 mM NaCl, 0.016 mM Brij®35, and 1 mM dithiothreitol. Test compounds were pre-incubated with Mcl-1(171-327) and biotin-Bim (51-76) for 60 min before addition of the detection mixture (LANCE® Eu-W1024 Anti-6×His and Streptavidin-Xlent). The reaction plates were further incubated overnight and then were read on an Envision® multimode reader (PerkinElmer). Fluorescence signals were measured at 620 nm (40-nm bandwidth) and 665 nm (7.5-nm bandwidth) with a 60 μs delay after excitation at 320 nm (75-nm bandwidth). The signal ratio at 665/620 nm corresponded to the Mcl-1/Bim interaction and was used in all data analyses. The IC50 values of test compounds were determined from duplicate data by analyzing competition curves using a four-parameter sigmoidal model in GraphPad Prism (GraphPad Software, San Diego, Calif.) or in Genedata Screener® (Genedata, Basel, Switzerland).

| SMILES | IC50 ([1]; 16 h) [nM] | IC50 [2] [nM] | IC50 ([1]; Homo sapiens, OPM-2, 16 h) [nM] |
| --- | --- | --- | --- |
| COCCN1CCN(C[C@H]2CCC[C@H](C)[C@@H](C)S(=O)(=O)NC(=O)c3ccc4c(c3)N(C[C@@H]3CC[C@@H]23)C[C@@]2(CCCc3cc(Cl)ccc32)CO4)CC1 (single isomer, unassigned) [Example 39] | 535 | 0.829 | – |
| C[C@@H]1[C@@H](C)CCC[C@H]([C@@H](C)O)[C@@H]2CC[C@H]2CN2C[C@@]3(CCCc4cc(Cl)ccc43)COc3ccc(cc32)C(=O)NS1(=O)=O (single isomer, unassigned) [Example 40] | 564 | 0.822 | – |
| C[C@@H]1[C@@H](C)CCC[C@H](CS(C)(=O)=O)[C@@H]2CC[C@H]2CN2C[C@@]3(CCCc4cc(Cl)ccc43)COc3ccc(cc32)C(=O)NS1(=O)=O (single isomer, unassigned) [Example 41] | 567 | 0.284 | – |
| C[C@@H]1CS(=O)(=O)NC(=O)c2ccc3c(c2)N(C[C@@H]2CC[C@H]2[C@@H](CO)CC[C@@H]1C)C[C@@]1(CCCc2cc(Cl)ccc21)CO3 (single isomer, unassigned) [Example 43] | 599 | 0.268 | – |
| C[C@@H]1[C@@H](C)CCC[C@@H](CS(C)(=O)=O)[C@@H]2CC[C@H]2CN2C[C@@]3(CCCc4cc(Cl)ccc43)COc3ccc(cc32)C(=O)NS1(=O)=O (single isomer, unassigned) [Example 44] | 617 | 0.502 | – |
| CC(=O)[C@@H]1CCC[C@H](C)[C@@H](C)S(=O)(=O)NC(=O)c2ccc3c(c2)N(C[C@@H]2CC[C@H]21)C[C@@]1(CCCc2cc(Cl)ccc21)CO3 (single isomer, unassigned) [Example 45] | 675 | 0.338 | – |
| C[C@@H]1[C@@H](C)CCC[C@H](CN2CCOCC2)[C@@H]2CC[C@H]2CN2C[C@@]3(CCCc4cc(Cl)ccc43)COc3ccc(cc32)C(=O)NS1(=O)=O (single isomer, unassigned) [Example 46] | 724 | 0.743 | – |
| C[C@@H]1[C@@H](C)CCC[C@@H]([C@@H](O)C(F)(F)F)[C@@H]2CC[C@H]2CN2C[C@@]3(CCCc4cc(Cl)ccc43)COc3ccc(cc32)C(=O)NS1(=O)=O (single isomer, unassigned) [Example 47] | 756 | 1.61 | – |
| CC(=O)N1CCN2CCN(C[C@H]3CCC[C@H](C)[C@@H](C)S(=O)(=O)NC(=O)c4ccc5c(c4)N(C[C@@H]4CC[C@@H]34)C[C@@]3(CCCc4cc(Cl)ccc43)CO5)C[C@H]2C1 (single isomer, unassigned) [Example 48] | 768 | 0.329 | – |
| CC[C@@H](O)[C@@H]1/C=C/C[C@H](C)[C@@H](C)S(=O)(=O)NC(=O)c2ccc3c(c2)N(C[C@@H]2CC[C@H]21)C[C@@]1(CCCc2cc(Cl)ccc21)CO3 (single isomer, unassigned) [Example 49] | 778 | 0.377 | – |
| C[C@@H]1[C@@H](C)CCC[C@H](CN2CCN3CCN(C)C[C@@H]3C2)[C@@H]2CC[C@H]2CN2C[C@@]3(CCCc4cc(Cl)ccc43)COc3ccc(cc32)C(=O)NS1(=O)=O (single isomer, unassigned) [Example 56] | 1030 | 0.52 | – |
| C[C@@H]1[C@@H](C)CCC[C@H]([C@@H](C)O)[C@@H]2CC[C@H]2CN2C[C@@]3(CCCc4cc(Cl)ccc43)COc3ccc(cc32)C(=O)NS1(=O)=O (single isomer, unassigned) [Example 58] | 1230 | 0.995 | – |
| C[C@@H]1[C@@H](C)CCC[C@H](CO)[C@@H]2CC[C@H]2CN2C[C@@]3(CCCc4cc(Cl)ccc43)COc3ccc(cc32)C(=O)NS1(=O)=O (single isomer, unassigned) [Example 63] | 1460 | 0.997 | – |
| C[C@@H]1[C@@H](C)CCC[C@H]([C@@H](C)O)[C@@H]2CC[C@H]2CN2C[C@@]3(CCCc4cc(Cl)ccc43)COc3ccc(cc32)C(=O)NS1(=O)=O (single isomer, unassigned) [Example 74] | 2040 | 3.67 | – |

Other lines, results leading:

| IC50 ([1]; 16 h) [nM] | IC50 [2] [nM] | IC50 ([1]; Homo sapiens, OPM-2, 16 h) [nM] | SMILES |
| --- | --- | --- | --- |
| 785 | 0.923 | – | C[C@@H]1[C@@H](C)CCC[C@H](CN2CC3(CCCN3C)C2)[C@@H]2CC[C@H]2CN2C[C@@]3(CCCc4cc(Cl)ccc43)COc3ccc(cc32)C(=O)NS1(=O)=O (single isomer, unassigned) [Example 50] |
| 936 | 0.222 | – | C[C@H]1CCC[C@H](CO)[C@@H]2CC[C@H]2CN2C[C@@]3(CCCc4cc(Cl)ccc43)COc3ccc(cc32)C(=O)NS(=O)(=O)C1 (single isomer, unassigned) [Example 51] |
| 939 | 0.107 | – | C[C@@H]1[C@@H](C)CCC[C@H](C(=O)O)[C@@H]2CC[C@H]2CN2C[C@@]3(CCCc4cc(Cl)ccc43)COc3ccc(cc32)C(=O)NS1(=O)=O (single isomer, unassigned) [Example 52] |
| 989 | 0.624 | – | CC[C@@H](O)[C@H]1/C=C/C[C@H](C)[C@@H](C)S(=O)(=O)NC(=O)c2ccc3c(c2)N(C[C@@H]2CC[C@H]21)C[C@@]1(CCCc2cc(Cl)ccc21)CO3 (single isomer, unassigned) [Example 54] |
| – | 0.604 | 1170 | COCCNC(=O)[C@@H]1CCC[C@H](C)[C@@H](C)S(=O)(=O)NC(=O)c2ccc3c(c2)N(C[C@@H]2CC[C@H]21)C[C@@]1(CCCc2cc(Cl)ccc21)CO3 (single isomer, unassigned) [Example 57] |
| 1320 | 0.921 | – | COCC[C@@H]1[C@@H](C)CCC[C@H](CO)[C@@H]2CC[C@H]2CN2C[C@@]3(CCCc4cc(Cl)ccc43)COc3ccc(cc32)C(=O)NS1(=O)=O (single isomer, unassigned) [Example 59] |
| 1410 | 0.281 | – | CC[C@H](O)[C@H]1/C=C/C[C@H](C)[C@@H](C)S(=O)(=O)NC(=O)c2ccc3c(c2)N(C[C@@H]2CC[C@H]21)C[C@@]1(CCCc2cc(Cl)ccc21)CO3 (single isomer, unassigned) [Example 61] |
| 1600 | 7.29 | – | C[C@@H]1[C@@H](C)CCC[C@@H]([C@H](O)C(F)(F)F)[C@@H]2CC[C@H]2CN2C[C@@]3(CCCc4cc(Cl)ccc43)COc3ccc(cc32)C(=O)NS1(=O)=O (single isomer, unassigned) [Example 66] |
| 1670 | 1.05 | – | C[C@@H]1[C@@H](C)CCC[C@H](CN2CCOCC2)[C@@H]2CC[C@H]2CN2C[C@@]3(CCCc4cc(Cl)ccc43)COc3ccc(cc32)C(=O)NS1(=O)=O (single isomer, unassigned) [Example 67] |
| 1670 | 0.938 | – | C[C@@H]1[C@@H](C)CCC[C@H]([C@H](O)C2CCN(C)CC2)[C@@H]2CC[C@H]2CN2C[C@@]3(CCCc4cc(Cl)ccc43)COc3ccc(cc32)C(=O)NS1(=O)=O (single isomer, unassigned) [Example 68] |
| 1860 | 0.843 | – | C[C@H]([C@H]1CCC[C@H](C)[C@@H](C)S(=O)(=O)NC(=O)c2ccc3c(c2)N(C[C@@H]2CC[C@H]21)C[C@@]1(CCCc2cc(Cl)ccc21)CO3)N1CCOCC1 (single isomer, unassigned) [Example 70] |
| 1950 | 0.359 | – | CC[C@@H]1CCCC[C@H](CO)[C@@H]2CC[C@H]2CN2C[C@@]3(CCCc4cc(Cl)ccc43)COc3ccc(cc32)C(=O)NS1(=O)=O (single isomer, unassigned) [Example 71] |
| 1990 | 0.849 | – | C[C@H]([C@H]1CCC[C@H](C)[C@@H](C)S(=O)(=O)NC(=O)c2ccc3c(c2)N(C[C@@H]2CC[C@H]21)C[C@@]1(CCCc2cc(Cl)ccc21)CO3)N1CCOCC1 (single isomer, unassigned) [Example 72] |
| 17000 | 7.41 | – | C[C@@H]1[C@@H](C)CCC[C@H](C)[C@@H]2CC[C@H]2CN2C[C@@]3(CCCc4cc(Cl)ccc43)COc3ccc(cc32)C(=O)NS1(=O)=O (single isomer, unassigned) [Example 73] |
| 2440 | 0.808 | – | CC[C@@H](O)[C@@H]1/C=C/C[C@H](C)[C@@H](C)S(=O)(=O)NC(=O)c2ccc3c(c2)N(C[C@@H]2CC[C@H]21)C[C@@]1(CCCc2cc(Cl)ccc21)CO3 (single isomer, unassigned) [Example 75] |
